In patent US5439904A, “2-spiro(2'-spirocycloalkyl)cyclopropyl cephalosporin sulfones as antiinflammatory and antigenerative agents” (Synphar Laboratories, Inc., priority 1993, dated 1995):

Molecular target: T1, HLE (Homo sapiens, UniProt P08246)
T1 construct: Purified elastase from human white blood cells; from tissue; host or cells: human white blood cells (purified enzyme)
T1 sequence (P08246 30-247 limits assumed): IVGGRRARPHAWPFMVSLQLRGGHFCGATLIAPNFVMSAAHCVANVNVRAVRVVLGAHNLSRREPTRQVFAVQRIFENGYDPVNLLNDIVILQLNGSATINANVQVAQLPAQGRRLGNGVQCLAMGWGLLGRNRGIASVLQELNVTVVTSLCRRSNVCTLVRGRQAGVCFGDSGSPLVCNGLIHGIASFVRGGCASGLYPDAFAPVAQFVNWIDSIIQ
Assay: Enzyme assay for inhibition of HLE (human leukocyte elastase)
Format: biochemical
Settings: purified elastase from human white blood cells, 10 nM; 10 minute preincubation; 0.35 mM MeO-succinyl-L-alanyl-L-alanyl-L-prolyl-L-valine-p-nitroanilide; pH 7.6; 10% dimethylsulfoxide; 410 nm; read-out: IC50 values against HLE
Description: ENZYME ASSAY FOR INHIBITION OF HLE
ENZYME: Purified elastase from human white blood cells.
MeO-succinyl-L-alanyl-L-alanyl-L-prolyl-L-valine-
10 mM phosphate buffer (pH 7.6)
The enzyme activity was determined by monitoring the increase in absorbance at 410 nm caused by the hydrolysis of chromogenic substrates. Inhibition of enzyme by the compounds described were determined after a 10 minute preincubation with the enzyme in the reaction mixture minus substrate. Reaction was initiated by the addition of substrate. The concentration of human leukocyte elastase used for assay was at 10 nM.

Row | Structure (SMILES) | IC50 [nM]
1 | CO[C@H]1C(=O)N2C(C(=O)N3CCN(CC(=O)O)CC3)=C(C)C3(CC34CCCCC4)S(=O)(=O)C12 (stereo partly shown) [Compound 9] | 27
2 | CO[C@H]1C(=O)N2C(C(=O)N3CCC(C(=O)O)CC3)=C(C)C3(CC34CCCC4)S(=O)(=O)C12 (stereo partly shown) [Compound 5] | 58.1
3 | CO[C@H]1C(=O)N2C(C(=O)OC(C)(C)C)=C(CSc3nc(=O)c(O)nn3C)C3(CC34CCCC4)S(=O)(=O)C12 (stereo partly shown) [Compound 12] | 15
4 | CO[C@H]1C(=O)N2C(C(=O)N3CCN(C)CC3)=C(C)C3(CC34CCCCC4)S(=O)(=O)C12 (stereo partly shown) [Compound 10] | 8.4
5 | CO[C@H]1C(=O)N2C(C(=O)N3CCN(CC(=O)O)CC3)=C(C)C3(CC34CCCC4)S(=O)(=O)C12 (stereo partly shown) [Compound 4] | 139
6 | CO[C@H]1C(=O)N2C(C(=O)OC(C)(C)C)=C(COC(C)=O)C3(CC34CCCC4)S(=O)(=O)C12 (stereo partly drawn) [Compound 11, t-Butyl-7α-methoxy-2-spiro(2'-spirocyclopentyl)cyclopropyl-3-acetoxymethyl-3-cephem-4-carboxylate-1,1-dioxide] | 9.1
7 | CO[C@H]1C(=O)N2C(C(=O)N3CCN(CC(=O)OC(C)(C)C)CC3)=C(C)C3(CC34CCCCC4)S(=O)(=O)C12 (stereo partly shown) [Compound 8] | 8.37
8 | CO[C@H]1C(=O)N2C(C(=O)N3CCN(C)CC3)=C(C)C3(CC34CCCCC4)S(=O)(=O)C12 (stereo partly shown) [Compound 7] | 6.4
9 | CO[C@H]1C(=O)N2C(C(=O)N3CCN(C)CC3)=C(C)C3(CC34CCCC4)S(=O)(=O)C12 (stereo partly shown) [Compound 3] | 24.4

The remaining lines, values ahead:

Row | IC50 [nM] | Structure (SMILES)
10 | 15.3 | CO[C@H]1C(=O)N2C(C(=O)OC(C)(C)C)=C(CSc3nnnn3C)C3(CC34CCCC4)S(=O)(=O)C12 (stereo partly shown) [Compound 14]
11 | 10.7 | CO[C@H]1C(=O)N2C(C(C)=O)=C(C)C3(CC34CCCC4)S(=O)(=O)C12 (stereo partly shown) [Compound 18]
12 | 75 | COC1C(=O)N2C(C(=O)N(C)CC(=O)O)=C(C)C3(CC34CCCC4)S(=O)(=O)C12 (stereo not shown) [Compound 23]
13 | 27.3 | CO[C@H]1C(=O)N2C(C(=O)N3CCN(C)CC3)=C(C)C3(CC34CCCC4)S(=O)(=O)C12 (stereo partly shown) [drawing 6]
14 | 10.3 | CO[C@H]1C(=O)N2C(C(=O)OC(C)(C)C)=C(CSc3nnc(C)s3)C3(CC34CCCC4)S(=O)(=O)C12 (stereo partly shown) [Compound 15]
15 | 32.4 | CO[C@H]1C(=O)N2C(C(=O)N3CCCCC3)=C(CSc3nc(=O)c(O)nn3C)C3(CC34CCCC4)S(=O)(=O)C12 (stereo partly shown) [Compound 16]
16 | 478 | CC1=C(C(=O)OC(c2ccccc2)c2ccccc2)N2C(=O)CC2S(=O)(=O)C12CC21CCCC1 (stereo not shown) [Compound 22, benzhydryl 7,7-dihydro-2-spiro(2'-spirocyclopentyl)-cyclopropyl-3-methyl-3-cephem-4-carboxylate-1,1-dioxide]
17 | 870 | CC1=C(C(=O)N2CCC(C(=O)OC(C)(C)C)CC2)N2C(=O)CC2S(=O)(=O)C12CC21CCCC1 (stereo not shown) [Compound 17]
18 | 34 | CO[C@H]1C(=O)N2C(C(=O)N3CCC(C(=O)O)CC3)=C(CSc3nc(=O)c(O)nn3C)C3(CC34CCCC4)S(=O)(=O)C12 (stereo partly shown) [Compound 24]
19 | 80.7 | CON=C(C)C1=C(C)C2(CC23CCCC3)S(=O)(=O)C2[C@@H](OC)C(=O)N12 (stereo partly shown) [Compound 19]
20 | 9.4 | CO[C@H]1C(=O)N2C(C(=O)OC(C)(C)C)=C(CSc3ccccn3)C3(CC34CCCC4)S(=O)(=O)C12 (stereo partly shown) [Compound 13]
21 | 3.9 | CO[C@H]1C(=O)N2C(C(=O)c3ccccc3)=C(C)C3(CC34CCCC4)S(=O)(=O)C12 (stereo partly shown) [Compound 21]
22 | 8.4 | CO[C@H]1C(=O)N2C(C(=O)N3CCC(C(N)=O)CC3)=C(C)C3(CC34CCCC4)S(=O)(=O)C12 (stereo partly shown) [Compound 20]
